# Where a name gives a salt, the structure may show the parent alone.
# Experiments:
# [1] = molecular target: T1, rhGAA (Myozyme™) (Homo sapiens, UniProt P10253); assay: rhGAA enzyme inactivation in citrate anti-coagulated whole blood at 37° C. (4-MUG); type: biochemical
# T1 construct: purchased Genzyme Corp; host or cells: Chinese hamster ovary cell line
# Experimental: Aliquots were collected at 0, 2, 4, 8 and 24 hrs and centrifuged to obtain plasma. These plasma samples were then diluted in potassium acetate buffer (pH 4.0) and assayed for GAA activity using the 4-methylumbeliferyl-α-glucose (4-MUG) fluorogenic substrate. The measured GAA activity for individual samples at each time point was normalized to the 0 hr and expressed as % of initial activity. Data from 4 independent experiments were analyzed to obtain the mean (and standard deviation) and plotted versus time to assess the loss of enzyme activity over this time course.
# Aliquots were collected at 0, 3 and 6 hrs and centrifuged to obtain plasma. These plasma samples were then diluted in potassium acetate buffer (pH 4.0) and assayed for GAA activity using the 4-methylumbeliferyl-α-glucose (4-MUG) fluorogenic substrate. The measured GAA activity for individual samples at each time point was normalized to the 0 hr and expressed as % of initial activity.
# Based on human plasma PK data, these concentrations are readily obtainable in the clinic.
# [2] = tested on: GAA KO mice; assay: Myozyme tissue uptake (GAA activity, 4-MUG) in GAA KO mice with or without oral 1-DNJ-HCl; type: in vivo
# Excerpt: Enzymatic activity as determined using a 4-MUG fluorogenic substrate assay.
# [3] = molecular target: T2, recombinant human GAA (Myozyme®, Genzyme Corp.) (Homo sapiens, UniProt P10253); assay: SYPRO Orange protein folding monitored at 37° C. over 24 hours; type: binding; conditions: plasma pH (7.4), 100 μM 1-DNJ-HCl
# T2 construct: purchased Genzyme Corp
# Experimental: FIG. 2B depicts a parallel SYPRO Orange thermal stability experiment to determine if the loss of enzyme activity shown in FIG. 2A, particularly the loss of Myozyme activity at ER pH (7.4), correlates with protein unfolding and denaturation.
# In order to determine if loss of initial enzyme activity is correlated to failure to maintain a proper conformation, a SYPRO Orange thermal stability experiment was performed on the samples above as generally described in Example 1. […] Based on this experiment, the % of GAA folded was estimated and plotted in FIG. 2B.
# [4] = tested on: GAA KO mouse; assay: GAA activity in heart and diaphragm tissue of GAA KO mouse, rhGAA with or without 1-DNJ-HCl; type: in vivo
# Experimental: Three groups of GAA KO Mice were administered one of the following formulations: […]
# (1) Control (No Treatment);
# Heart and Diaphragm tissue homogenates were harvested and rhGAA activity was measured using the fluorogenic substrate (4-MUG).
# [5] = molecular target: T3, GAA in cell lines derived from late-onset Pompe patients with the IVS 1 (−13 T>G) splicing defect (Homo sapiens, UniProt P10253); assay: GAA levels in cell lines derived from late-onset Pompe patients; type: cell-based; conditions: IVS 1 (−13 T>G) splicing mutation
# T3 construct: endogenous in cells
# [6] = molecular target: T2, recombinant human GAA (Myozyme®, Genzyme Corp.); assay: SYPRO Orange thermal stability assay (heat-induced denaturation); type: binding
# Excerpt: The thermal stability assay utilizes heat to induce protein denaturation, which is monitored using a SYPRO Orange dye that fluoresces upon binding to hydrophobic amino acids (which are not exposed in a folded protein).
# FIG. 5 depict the results of a thermal stability assay that utilizes heat to induce protein denaturation, which is monitored using a SYPRO Orange dye that fluoresces upon binding to hydrophobic amino acids (which are not exposed in a folded protein).
# Denaturation is monitored using a SYPRO Orange dye that fluoresces upon binding to hydrophobic amino acids (which are not exposed in a folded protein).
# The thermal stability was performed at pH 7.4 for two formulations, which corresponds to the pH of the ER.
# A thermal stability experiment as generally described in Example 1 was performed on four compositions:
# (1) Myozyme only composition;
# [7] = reported value; cited from earlier work
# [8] = stored at 2 to 8° C.; patient instructions for Myozyme; cited from earlier work
# [9] = tested on: GAA KO mice; assay: Tissue glycogen reduction in GAA KO mice; type: in vivo; conditions: Myozyme 40 mg/kg IV every other week for 8 weeks, 1-DNJ-HCl 30 mg/kg oral 30 minutes prior where co-administered
# Experimental: Glycogen reduction with Myozyme™ alone was 93±1%, 41±4%, 69±3%, and 18±4%, in heart, diaphragm, soleus, and quadriceps, respectively, relative to untreated mice.
# Twelve-week old male GAA KO mice were administered a single dose of Myozyme™ (40 mg/kg) via bolus tail vein injection every other week for 8 weeks. To prevent anaphylaxis, before the third and fourth Myozyme™ injection, diphenhydramine (10 mg/kg intraperitoneally) was administered 10 min before Myozyme™ injection. […] Mice were euthanized 14 days after the last Myozyme™ administration.
# Glycogen levels in heart, diaphragm, soleus, and quadriceps were then measured. […] Briefly, homogenates were prepared by homogenizing ˜50 mg tissue for 3-5 seconds on ice with a microhomogenizer in 200 μL deionized water. Supernatants were heat denatured (99° C. for 10 min) to remove endogenous amyloglucosidase activity. Denatured lysates (4 μL) were then analyzed in duplicate by addition of 36 μL water with and without 10 μL of 800 U/mL of amyloglucosidase (Sigma Aldrich, St. Louis, Mo.) and incubated for 1 hour at 50° C. The reaction was stopped by inactivation at 100° C. for 10 min. Finally, 200 μL of glucose reagent (Sigma) was added absorbance read at 340 nm on Spectramax. A standard curve ranging from 5 μg/mL to 400 μg/mL Type III rabbit liver glycogen (Sigma) was run each day for conversion of absorbance to absolute glycogen units. Simultaneously, the amount of protein was determined in tissue homogenates using the Micro BCA Protein Assay (Pierce, Rockford, Ill.) following the manufacturer's instructions. The glycogen content of each sample was normalized to protein, and data were finally expressed as micrograms of glycogen per milligram of protein (μg/mg protein).
Molecule,"rhGAA activity in whole blood with 1-DNJ-HCl ([1]; 50 μM 1-DNJ-HCl, 37° C., throughout 24 hrs)","stabilization of rhGAA in whole blood ([1]; high 1-DNJ-HCl concentrations (50 and 100 μM), range tested 0-100 μM)","effect of co-administration on Myozyme tissue uptake ([2]; 10, 100, 1000 mg/kg oral 1-DNJ-HCl with Myozyme 10 mg/kg IV, up to 7 days post injection)",prevention of GAA denaturation and loss of enzyme activity [3],"increase of uptake of rhGAA in heart and diaphragm ([4]; GAA KO mice, 100 mg/kg p.o., regimen including administration prior to rhGAA injection)","rhGAA uptake in the heart and diaphragm (GAA activity) ([4]; GAA KO mouse, co-administered with rhGAA versus ERT monotherapy)",GAA levels in patient-derived cell lines [5],"thermal stability of rhGAA (heat required to denature) ([6]; pH 7.4, 100 μM 1-DNJ-HCl, compared to formulation without the ASSC)","Myozyme tissue uptake (as a measure of GAA activity) ([2]; Myozyme 10 mg/kg IV once per week, 7 days post injection, all groups)",plasma half-life of Myozyme (reported) [7],time the product is stable on storage [8],glycogen reduction in diaphragm relative to untreated mice [9] [%],glycogen reduction in heart relative to untreated mice [9] [%],glycogen reduction in quadriceps relative to untreated mice [9] [%],glycogen reduction in soleus relative to untreated mice [9] [%],"thermal stability of Myozyme alone ([6]; lysosomal pH (5.2) versus ER pH (7.4), no ASSC)"
"OC[C@H]1NC[C@H](O)[C@@H](O)[C@@H]1O [1-DNJ-HCl, 1-deoxynorjirimycin hydrochloride]",remained completely active,best for stabilizing rhGAA and preventing enzyme inactivation,dose-dependent increase,can prevent GAA denaturation and loss of enzyme activity,approximately 2 fold,increased,increased GAA levels alone and in combination with hrGAA,required significantly more heat to denature,–,–,–,–,–,–,–,–
"Myozyme: alglucosidase alfa, human acid α-glucosidase produced by recombinant DNA technology in a Chinese hamster ovary cell line (Genzyme)",–,–,–,–,–,–,–,–,declined,more than 3 hrs,up to 24 hours,41±4,93±1,18±4,69±3,much more stable at lysosomal pH (5.2) than at ER pH (7.4)
